Experimental data: patent US7648983B2, “BACE inhibitors” (Eli Lilly and Company, priority 2008, dated 2010)
Where a name gives a salt, the structure may show the parent alone. Read-outs that look alike come from different tables or passages of the source.

Experiments:
[1] = molecular target: T1, beta-secretase (BACE) in primary cortical neurons from PDAPP transgenic embryonic mice (Mus musculus, UniProt P56818); experiment: PDAPP primary neuronal assay (Abeta ELISA); type: cell-based
T1 construct: endogenous in cells; host or cells: primary cortical neurons from Embryonic Day 16 PDAPP transgenic mouse embryos
Description: (§1) For in vitro enzymatic and cellular assays, test compounds are prepared in DMSO to make up a 10 mM stock solution. The stock solution is serially diluted in DMSO to obtain a ten-point dilution curve with final compound concentrations ranging from […] to 1 pM in a 96-well round-bottom plate before conducting the in vitro enzymatic and whole cell assays.
A confirmatory whole cell assay is also run in primary neuronal cultures generated from PDAPP transgenic embryonic mice. Primary cortical neurons are prepared from Embryonic Day 16 PDAPP embryos and cultured in 96 well plates (15×10^4 cells/well in DMEM/F12 (1:1) plus 10% FBS). After 4-6 days in vitro, culture media is replaced with serum free DMEM/F12 (1:1) containing B27 supplement and neurons are incubated at 37° C. for 24 h in the presence/absence of inhibitors (diluted in DMSO) at the desired concentration. At the end of the incubation, conditioned media are analyzed for evidence of beta-secretase activity, for example, by analysis of Abeta peptides. Total Abeta peptides (Abeta 1-x) are measured by a sandwich ELISA, using monoclonal 266 as a capture antibody and biotinylated 3D6 as reporting antibody. Alternatively, Abeta 1-40 and Abeta 1-42 peptides are measured by a sandwich ELISA, using monoclonal 2G3 as a capture antibody for Abeta 1-40, and monoclonal 21F12 as a capture antibody for Abeta 1-42. Both Abeta 1-40 and Abeta 1-42 ELISAs use biotinylated 3D6 as the reporting antibody. The concentration of Abeta released in the conditioned media following the compound treatment corresponds to the activity of BACE under such conditions. The 10-point inhibition curve is plotted and fitted with the four-parameter logistic equation to obtain the EC50 and IC50 values for the Abeta-lowering effect. […]

human BACE(1-460):Fc = molecular target: T2, human BACE(1-460):Fc (Homo sapiens, UniProt P56817); experiment: BACE FRET assay; type: biochemical
T2 construct: made in house; host or cells: HEK293 cells (transient, pJB02 vector), purified from conditioned media by Protein A
Description: as §1
Serial dilutions of test compounds are prepared as described above. Compounds are further diluted 20× in KH2PO4 buffer. Ten μL of each dilution is added to each well on row A to H of a corresponding low protein binding black plate containing the reaction mixture (25 μL of 50 mM KH2PO4, pH 4.6, 1 mM TRITON® X-100, 1 mg/mL Bovine Serum Albumin, and 15 μM of FRET substrate) (See Yang, et. al., J. Neurochemistry, 91(6) 1249-59 (2004)). The content is mixed well on a plate shaker for 10 minutes. Fifteen μL of two hundred pM human BACE(1-460):Fc (See Vasser, et al., Science, 286, 735-741 (1999)) in the KH2PO4 buffer is added to the plate containing substrate and test compounds to initiate the reaction. The RFU of the mixture at time 0 is recorded at excitation wavelength 355 nm and emission wavelength 460 nm, after brief mixing on a plate shaker. The reaction plate is covered with aluminum foil and kept in a dark humidified oven at room temperature for 16 to 24 h. The RFU at the end of incubation is recorded with the same excitation and emission setting. The difference of the RFU at time 0 and the end of incubation is representative of the activity of BACE under the compound treatment. RFU differences are plotted versus inhibitor concentration and a curve is fitted with a four-parameter logistic equation to obtain the EC50 and IC50 values. (See Sinha, et al., Nature, 402, 537-540 (2000)).
Human (accession number: AF190725) is cloned from total brain cDNA by […]. The nucleotide sequences corresponding to amino acid sequences #1 to 460 are inserted into the cDNA encoding human IgG1 (Fc) polypeptide (Vassar et al. 1999). This fusion protein of BACE(1-460) and human Fc, named huBACE:Fc, is constructed into the pJB02 vector. Human BACE(1-460):Fc (huBACE:Fc) is transiently expressed in HEK293 cells. 250 μg cDNA of each construct is mixed with Fugene 6 and added to 1 liter HEK293 cells. Four days after the transfection, conditioned media are harvested for purification.
huBACE:Fc is purified by Protein A chromatography. The enzyme is stored at −80° C. in small aliquots.

[2] = molecular target: T3, beta-secretase (BACE) in HEK293/APP751sw cells (Homo sapiens, UniProt P56817); experiment: HEK293Swe whole cell assay (Abeta ELISA); type: cell-based
T3 construct: endogenous in cells; host or cells: HEK293p (ATCC CRL-1573) stably expressing human APP751 Swedish
Description: as §1
The routine whole cell assay for the measurement of inhibition of beta-secretase activity utilizes the human embryonic kidney cell line HEK293p (ATCC Accession No. CRL-1573) stably expressing a human APP751 cDNA containing the naturally occurring double mutation Lys651Met652 to […], commonly called the Swedish mutation (noted HEK293/APP751sw) and shown to overproduce Abeta (Citron, et al., Nature, 360, 672-674 (1992)). In vitro Aβ reduction assays have been described in the literature (See Dovey, et al., Journal of Neurochemistry, 76, 173-181 (2001); Seubert, et al., Nature, 361, 260 (1993); and Johnson-Wood, et al., Proc. Natl. Acad. Sci. USA, 94, 1550-1555 (1997)).
Cells (HEK293/APP751sw at 3.5×10^4 cells/well, containing 200 μL culture media, DMEM containing 10% FBS) are incubated at 37° C. for 4 to 24 h in the presence/absence of inhibitors (diluted in DMSO) at the desired concentration. At the end of the incubation, conditioned media are analyzed for evidence of beta-secretase activity, for example, by analysis of Abeta peptides. Total Abeta peptides (Abeta 1-x) are measured by a sandwich ELISA, using monoclonal 266 as a capture antibody and biotinylated 3D6 as reporting antibody. Alternatively, Abeta 1-40 and Abeta 1-42 peptides are measured by a sandwich ELISA, using monoclonal 2G3 as a capture antibody for Abeta 1-40, and monoclonal 21F12 as a capture antibody for Abeta 1-42. Both Abeta 1-40 and Abeta 1-42 ELISAs use biotinylated 3D6 as the reporting antibody. The concentration of Abeta released in the conditioned media following the compound treatment corresponds to the activity of BACE under such conditions. The 10-point inhibition curve is plotted and fitted with the four-parameter logistic equation to obtain the EC50 and IC50 values for the Abeta-lowering effect.

beta-secretase = molecular target: T4, beta-secretase (Mus musculus, UniProt P56818); experiment: In vivo inhibition of beta-secretase in PDAPP mice; conditions: 3 hours
T4 construct: from tissue; host or cells: living PDAPP mice; brain cortex, plasma and CSF analysed
From the text: Several animal models, including mouse, guinea pig, dog, and monkey, may be used to screen for inhibition of beta-secretase activity in vivo following compound treatment. Animals used in this invention can be wild type, transgenic, or gene knockout animals. For example, the PDAPP mouse model, prepared as described in Games et al., Nature 373, 523-527 (1995), and other non-transgenic or gene knockout animals are useful to analyze in vivo inhibition of Abeta and sAPPbeta production in the presence of inhibitory compounds. Generally, 2 to 12 month old PDAPP mice, gene knockout mice or non-transgenic animals are administered compound formulated in vehicles, such as corn oil, cyclodextran, phosphate buffers, PHARMASOLVE®, or other suitable vehicles. One to twenty-four hours following the administration of compound, animals are sacrificed, and brains as well as cerebrospinal fluid and plasma are removed for analysis of Abetas, C99 and sAPP fragments. (See Dovey, et al., Journal of Neurochemistry, 76, 173-181 (2001); and Johnson-Wood, et al., Proc. Natl. Acad. Sci. USA, 94, 1550-1555 (1997)).
For standard efficacy studies, animals are dosed with various concentrations of compound and compared to a vehicle-treated control group dosed at the same time. For some time course studies, brain tissue, plasma or cerebrospinal fluid is obtained from selected animals, beginning at time 0 to establish a baseline. Compound is administered to other groups and sacrificed at various times after dosing. Brain tissue, plasma or cerebrospinal fluid is obtained from selected animals and analyzed for the presence of APP cleavage products, including Abeta peptides, sAPPbeta and other APP fragments, for example, by specific sandwich ELISA assays. At the end of the test period, animals are sacrificed and brain tissues, plasma or cerebrospinal fluid are analyzed for the presence of Abeta peptides, C99 and sAPPbeta. Brain tissues of APP transgenic animals are also analyzed for the amount of beta-amyloid plaques following compound treatment.
For example, 3 hours after administration of 100 mg/kg sub-cutaneous dose of the compound of example 19 to young male PDAPP mice, Abeta 1-x peptide, C99 and sAPPb levels are reduced approximately 30%, 50% and 20% in brain cortex, respectively, compared to vehicle-treated mice.

[3] = Table 29, comparator of WO 2007/049532 and enantiomers, read-out: PDAPP Neuron A-beta (1-40) ELISA IC50
[4] = Table 29, comparator of WO 2007/049532 and enantiomers, read-out: PDAPP Neuron A-beta (1-42) ELISA IC50
[5] = Table 29, comparator of WO 2007/049532 and enantiomers
[6] = Table 29, comparator of WO 2007/049532 and enantiomers, read-out: HEK 293 Swe A-beta (1-40) ELISA IC50
[7] = Table 29, comparator of WO 2007/049532 and enantiomers, read-out: HEK 293 Swe A-beta (1-42) ELISA IC50
[8] = Table 28, Abeta 1-40 in conditioned media, 24 h, read-out: PDAPP Neuron A-beta (1-40) ELISA IC50
[9] = Table 28, Abeta 1-42 in conditioned media, 24 h, read-out: PDAPP Neuron A-beta (1-42) ELISA IC50
[10] = 100 mg/kg sub-cutaneous, young male PDAPP mice, vs vehicle-treated mice
[11] = Table 26, purified recombinant huBACE:Fc, FRET substrate, pH 4.6
[12] = Table 27, Abeta 1-40 in conditioned media, read-out: HEK 293 Swe A-beta (1-40) ELISA IC50
[13] = Table 27, Abeta 1-42 in conditioned media, read-out: HEK 293 Swe A-beta (1-42) ELISA IC50
[14] = 30 mg/kg sub-cutaneous, young male PDAPP mice, brain, vs vehicle-treated mice

T1 sequence (P56818 46-501): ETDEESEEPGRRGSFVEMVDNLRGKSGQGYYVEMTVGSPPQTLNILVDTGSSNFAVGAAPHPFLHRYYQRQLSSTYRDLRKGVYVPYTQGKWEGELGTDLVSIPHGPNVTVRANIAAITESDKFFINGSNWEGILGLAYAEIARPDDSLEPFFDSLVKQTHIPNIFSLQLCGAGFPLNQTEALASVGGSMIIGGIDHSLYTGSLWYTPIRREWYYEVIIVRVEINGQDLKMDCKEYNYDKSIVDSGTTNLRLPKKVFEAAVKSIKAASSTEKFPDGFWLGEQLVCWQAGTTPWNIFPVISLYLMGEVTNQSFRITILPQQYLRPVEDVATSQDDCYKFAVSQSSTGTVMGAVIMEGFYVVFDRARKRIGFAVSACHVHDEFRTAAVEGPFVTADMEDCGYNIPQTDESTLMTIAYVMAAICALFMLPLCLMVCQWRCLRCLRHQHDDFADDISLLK
T4 sequence (P56818 46-501): as above
T3 sequence (P56817 46-501): as the sequence (P56818 46-501) above, with S6P, I162V, I165L, T180S, A182V, V340I, A393L, H443Q counted along it
T2 sequence (P56817 22-460): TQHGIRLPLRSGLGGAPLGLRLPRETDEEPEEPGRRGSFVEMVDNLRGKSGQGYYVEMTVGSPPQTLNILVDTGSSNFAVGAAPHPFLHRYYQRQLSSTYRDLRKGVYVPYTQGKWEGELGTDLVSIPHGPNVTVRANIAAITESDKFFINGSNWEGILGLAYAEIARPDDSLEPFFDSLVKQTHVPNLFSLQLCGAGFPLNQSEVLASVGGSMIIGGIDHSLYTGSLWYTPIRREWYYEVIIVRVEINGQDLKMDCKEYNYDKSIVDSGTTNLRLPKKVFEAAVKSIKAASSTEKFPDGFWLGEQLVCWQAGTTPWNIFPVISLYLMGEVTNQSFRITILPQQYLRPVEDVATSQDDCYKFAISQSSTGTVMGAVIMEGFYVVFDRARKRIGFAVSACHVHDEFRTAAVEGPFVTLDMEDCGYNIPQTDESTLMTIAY

| IC50 (human BACE(1-460):Fc; [5]) | IC50 [2, 6] | IC50 [2, 7] | IC50 [1, 8] | IC50 [1, 9] | IC50 (human BACE(1-460):Fc; [11]) | IC50 [2, 12] | IC50 [2, 13] | Structure (SMILES) | also measured |
| --- | --- | --- | --- | --- | --- | --- | --- | --- | --- |
| > 100000 nM | 16500 nM | 23700 nM | – | – | – | – | – | C[C@]1(c2ccc(-c3ccccc3)cc2)CCSC(N)=N1 [reference compound] | IC50 [1, 3]: 28100 nM; IC50 [1, 4]: 46800 nM |
| – | – | – | 288 nM | 214 nM | 420 nM | 335 nM | 480 nM | COc1cncc(-c2cccc([C@]3(C)CCSC(N)=N3)c2)c1.Cl.Cl [Example 19, (S)-4-[3-(5-Methoxy-pyridin-3-yl)-phenyl]-4-methyl-5,6-dihydro-4H-[1,3]thiazin-2-ylamine dihydrochloride] | Abeta 1-x peptide level reduction in brain cortex (beta-secretase; [10]): approximately 30%; C99 level reduction in brain cortex (beta-secretase; [10]): approximately 50%; sAPPb level reduction in brain cortex (beta-secretase; [10]): ~20% |
| 28000 nM | 13200 nM | 16400 nM | – | – | – | – | – | C[C@@]1(c2ccc(-c3ccccc3)cc2)CCSC(N)=N1 [reference compound] | IC50 [1, 3]: 7820 nM; IC50 [1, 4]: 10400 nM |
| – | – | – | 658 nM | 648 nM | 833 nM | 1300 nM | 948 nM | C[C@@]1(c2ccc(F)c(-c3cnccn3)c2)CCSC(N)=N1 [Example 12, (S)-4-(4-fluoro-3-(pyrazin-2-yl)phenyl)-4-methyl-5,6-dihydro-4H-1,3-thiazin-2-amine dihydrochloride] | – |
| – | – | – | 355 nM | 429 nM | 867 nM | 863 nM | 803 nM | CC1(C)C[C@@](C)(c2ccc(F)c(-c3cncnc3)c2)N=C(N)S1 [Example 21, (S)-4-(4-fluoro-3-(pyrimidin-5-yl)phenyl)-4,6,6-trimethyl-5,6-dihydro-4H-1,3-thiazin-2-amine] | – |
| 116000 nM | 21400 nM | 35300 nM | – | – | – | – | – | CC1(c2ccc(-c3ccccc3)cc2)CCSC(N)=N1 (stereo not drawn) [reference compound] | – |
| – | – | – | – | – | – | – | – | C[C@@]1(c2cc(-c3cncnc3)c(F)cc2F)CCSC(N)=N1 [Example 5, (S)-4-(2,4-Difluoro-5-pyrimidin-5-yl-phenyl)-4-methyl-5,6-dihydro-4H-[1,3]thiazin-2-ylamine] | CSF Abeta 1-x level reduction (beta-secretase; 10 mg/kg oral, CSF): ~60%; plasma Abeta 1-x level reduction (beta-secretase; 10 mg/kg oral, plasma): approximately 50%; Abeta 1-x peptide level reduction (beta-secretase; [14]): approximately 50%; C99 level reduction (beta-secretase; [14]): ~45%; sAPPb level reduction (beta-secretase; [14]): approximately 30% |
